Test results reported in US20090005745A1, “Transdermal drug delivery systems for delivering anti-inflammatory drugs” (priority 2007, published 2009).

Columns and labels:
[1] = Ketoprofen plasma levels achieved by on-knee patch delivery (Example 7); type: in vivo, human; conditions: N = 22; for concentration at 2 h / concentration at 4 h / concentration at 6 h / concentration at 8 h / concentration at 10 h / concentration at 12 h / concentration at 14 h / concentration at 16 h / concentration at 18 h / concentration at 20 h / concentration at 24 h / concentration at 28 h / concentration at 32 h / concentration at 36 h / concentration at 42 h / concentration at 48 h: human, plasma, topical, Mean Ketoprofen Plasma Concentration; for concentration at 2 h: applied 12 h
Protocol: In one study session, subjects received one patch above one knee and in the other study session subjects received two patches simultaneously, one above each knee. The patches were applied for 12 hours and venous blood samples were collected during both study session.

[2] = Skin permeability using the Example 1 formulations (Example 6)
Description: Thus, adjustment of the drug concentration can be carried out in order to achieve a desired therapeutic effect.

Compound: CC(C(=O)O)c1cccc(C(=O)c2ccccc2)c1 (centres unmarked) [Ketoprofen]
- Mean Ketoprofen Plasma Concentration produced by unit skin-drug contact area ([1]; Single Patch, time point 2 hrs): 0.078 ng/ml/cm^2
- Mean Ketoprofen Plasma Concentration produced by unit skin-drug contact area ([1]; Single Patch, time point 4 hrs): 0.366 ng/ml/cm^2
- Mean Ketoprofen Plasma Concentration produced by unit skin-drug contact area ([1]; Single Patch, time point 6 hrs): 0.562 ng/ml/cm^2
- Mean Ketoprofen Plasma Concentration produced by unit skin-drug contact area ([1]; Single Patch, time point 8 hrs): 0.675 ng/ml/cm^2
- Mean Ketoprofen Plasma Concentration produced by unit skin-drug contact area ([1]; Single Patch, time point 10 hrs): 0.770 ng/ml/cm^2
- Mean Ketoprofen Plasma Concentration produced by unit skin-drug contact area ([1]; Single Patch, time point 12 hrs): 0.703 ng/ml/cm^2
- Mean Ketoprofen Plasma Concentration produced by unit skin-drug contact area ([1]; Single Patch, time point 14 hrs): 0.464 ng/ml/cm^2
- Mean Ketoprofen Plasma Concentration produced by unit skin-drug contact area ([1]; Single Patch, time point 16 hrs): 0.282 ng/ml/cm^2
- Mean Ketoprofen Plasma Concentration produced by unit skin-drug contact area ([1]; Single Patch, time point 18 hrs): 0.213 ng/ml/cm^2
- Mean Ketoprofen Plasma Concentration produced by unit skin-drug contact area ([1]; Single Patch, time point 20 hrs): 0.160 ng/ml/cm^2
- Mean Ketoprofen Plasma Concentration produced by unit skin-drug contact area ([1]; Single Patch, time point 24 hrs): 0.095 ng/ml/cm^2
- Mean Ketoprofen Plasma Concentration produced by unit skin-drug contact area ([1]; Single Patch, time point 28 hrs): 0.058 ng/ml/cm^2
- Mean Ketoprofen Plasma Concentration produced by unit skin-drug contact area ([1]; Single Patch, time point 32 hrs): 0.035 ng/ml/cm^2
- Mean Ketoprofen Plasma Concentration produced by unit skin-drug contact area ([1]; Single Patch, time point 36 hrs): 0.028 ng/ml/cm^2
- Mean Ketoprofen Plasma Concentration produced by unit skin-drug contact area ([1]; Single Patch, time point 42 hrs): 0.023 ng/ml/cm^2
- Mean Ketoprofen Plasma Concentration produced by unit skin-drug contact area ([1]; Single Patch, time point 48 hrs): 0.019 ng/ml/cm^2
- Mean Ketoprofen Plasma Concentration ([1]; Two Patches Dose-Normalized to one patch, time point 2 hrs): 3.9 ng/mL
- Mean Ketoprofen Plasma Concentration ([1]; Two Patches Dose-Normalized to one patch, time point 4 hrs): 44.6 ng/mL
- Mean Ketoprofen Plasma Concentration ([1]; Two Patches Dose-Normalized to one patch, time point 48 hrs): 3.1 ng/mL
- Mean Ketoprofen Plasma Concentration produced by unit skin-drug contact area ([1]; Two Patches, time point 2 hrs): 0.023 ng/ml/cm^2
- Mean Ketoprofen Plasma Concentration produced by unit skin-drug contact area ([1]; Two Patches, time point 4 hrs): 0.259 ng/ml/cm^2
- Mean Ketoprofen Plasma Concentration produced by unit skin-drug contact area ([1]; Two Patches, time point 6 hrs): 0.512 ng/ml/cm^2
- Mean Ketoprofen Plasma Concentration produced by unit skin-drug contact area ([1]; Two Patches, time point 8 hrs): 0.630 ng/ml/cm^2
- Mean Ketoprofen Plasma Concentration produced by unit skin-drug contact area ([1]; Two Patches, time point 10 hrs): 0.714 ng/ml/cm^2
- Mean Ketoprofen Plasma Concentration produced by unit skin-drug contact area ([1]; Two Patches, time point 12 hrs): 0.665 ng/ml/cm^2
- Mean Ketoprofen Plasma Concentration produced by unit skin-drug contact area ([1]; Two Patches, time point 14 hrs): 0.454 ng/ml/cm^2
- Mean Ketoprofen Plasma Concentration produced by unit skin-drug contact area ([1]; Two Patches, time point 16 hrs): 0.280 ng/ml/cm^2
- Mean Ketoprofen Plasma Concentration produced by unit skin-drug contact area ([1]; Two Patches, time point 18 hrs): 0.199 ng/ml/cm^2
- Mean Ketoprofen Plasma Concentration produced by unit skin-drug contact area ([1]; Two Patches, time point 20 hrs): 0.152 ng/ml/cm^2
- Mean Ketoprofen Plasma Concentration produced by unit skin-drug contact area ([1]; Two Patches, time point 24 hrs): 0.090 ng/ml/cm^2
- Mean Ketoprofen Plasma Concentration produced by unit skin-drug contact area ([1]; Two Patches, time point 28 hrs): 0.054 ng/ml/cm^2
- Mean Ketoprofen Plasma Concentration produced by unit skin-drug contact area ([1]; Two Patches, time point 32 hrs): 0.036 ng/ml/cm^2
- Mean Ketoprofen Plasma Concentration produced by unit skin-drug contact area ([1]; Two Patches, time point 36 hrs): 0.029 ng/ml/cm^2
- Mean Ketoprofen Plasma Concentration produced by unit skin-drug contact area ([1]; Two Patches, time point 42 hrs): 0.021 ng/ml/cm^2
- Mean Ketoprofen Plasma Concentration produced by unit skin-drug contact area ([1]; Two Patches, time point 48 hrs): 0.018 ng/ml/cm^2
- concentration at 2 h ([1]; 136 mg, Single Patch (136 mg, 172 cm^2, heated) above one knee, time point 2 hrs): 13.5 ng/mL
- concentration at 4 h ([1]; 136 mg, Single Patch, time point 4 hrs): 62.9 ng/mL
- concentration at 6 h ([1]; 136 mg, Single Patch, time point 6 hrs): 96.7 ng/mL
- concentration at 8 h ([1]; 136 mg, Single Patch, time point 8 hrs): 116 ng/mL
- concentration at 10 h ([1]; 136 mg, Single Patch, time point 10 hrs): 132 ng/mL
- concentration at 12 h ([1]; 136 mg, Single Patch, time point 12 hrs): 121 ng/mL
- concentration at 14 h ([1]; 136 mg, Single Patch, time point 14 hrs): 79.8 ng/mL
- concentration at 16 h ([1]; 136 mg, Single Patch, time point 16 hrs): 48.5 ng/mL
- concentration at 18 h ([1]; 136 mg, Single Patch, time point 18 hrs): 36.3 ng/mL
- concentration at 20 h ([1]; 136 mg, Single Patch, time point 20 hrs): 27.6 ng/mL
- concentration at 24 h ([1]; 136 mg, Single Patch, time point 24 hrs): 16.4 ng/mL
- concentration at 28 h ([1]; 136 mg, Single Patch, time point 28 hrs): 10 ng/mL
- concentration at 32 h ([1]; 136 mg, Single Patch, time point 32 hrs): 6.1 ng/mL
- concentration at 36 h ([1]; 136 mg, Single Patch, time point 36 hrs): 4.9 ng/mL
- concentration at 42 h ([1]; 136 mg, Single Patch, time point 42 hrs): 3.9 ng/mL
- concentration at 48 h ([1]; 136 mg, Single Patch, time point 48 hrs): 3.2 ng/mL
- concentration at 6 h ([1]; 272 mg, Two Patches Dose-Normalized to one patch, time point 6 hrs): 88.1 ng/mL
- concentration at 8 h ([1]; 272 mg, Two Patches Dose-Normalized to one patch, time point 8 hrs): 108 ng/mL
- concentration at 10 h ([1]; 272 mg, Two Patches Dose-Normalized to one patch, time point 10 hrs): 123 ng/mL
- concentration at 12 h ([1]; 272 mg, Two Patches Dose-Normalized to one patch, time point 12 hrs): 114 ng/mL
- concentration at 14 h ([1]; 272 mg, Two Patches Dose-Normalized to one patch, time point 14 hrs): 78.1 ng/mL
- concentration at 16 h ([1]; 272 mg, Two Patches Dose-Normalized to one patch, time point 16 hrs): 48.2 ng/mL
- concentration at 18 h ([1]; 272 mg, Two Patches Dose-Normalized to one patch, time point 18 hrs): 34.2 ng/mL
- concentration at 20 h ([1]; 272 mg, Two Patches Dose-Normalized to one patch, time point 20 hrs): 26.1 ng/mL
- concentration at 24 h ([1]; 272 mg, Two Patches Dose-Normalized to one patch, time point 24 hrs): 15.5 ng/mL
- concentration at 32 h ([1]; 272 mg, Two Patches Dose-Normalized to one patch, time point 32 hrs): 6.2 ng/mL
- concentration at 36 h ([1]; 272 mg, Two Patches Dose-Normalized to one patch, time point 36 hrs): 5 ng/mL
- concentration at 42 h ([1]; 272 mg, Two Patches Dose-Normalized to one patch, time point 42 hrs): 3.6 ng/mL
- concentration at 2 h ([1]; 272 mg, Two Patches simultaneously, one above each knee, time point 2 hrs): 7.8 ng/mL
- concentration at 4 h ([1]; 272 mg, Two Patches, time point 4 hrs): 89.2 ng/mL
- concentration at 6 h ([1]; 272 mg, Two Patches, time point 6 hrs): 176 ng/mL
- concentration at 8 h ([1]; 272 mg, Two Patches, time point 8 hrs): 217 ng/mL
- concentration at 10 h ([1]; 272 mg, Two Patches, time point 10 hrs): 246 ng/mL
- concentration at 12 h ([1]; 272 mg, Two Patches, time point 12 hrs): 229 ng/mL
- concentration at 14 h ([1]; 272 mg, Two Patches, time point 14 hrs): 156 ng/mL
- concentration at 16 h ([1]; 272 mg, Two Patches, time point 16 hrs): 96.3 ng/mL
- concentration at 18 h ([1]; 272 mg, Two Patches, time point 18 hrs): 68.4 ng/mL
- concentration at 20 h ([1]; 272 mg, Two Patches, time point 20 hrs): 52.2 ng/mL
- concentration at 24 h ([1]; 272 mg, Two Patches, time point 24 hrs): 31 ng/mL
- concentration at 28 h ([1]; 272 mg, Two Patches, time point 28 hrs): 18.6 ng/mL
- concentration at 32 h ([1]; 272 mg, Two Patches, time point 32 hrs): 12.3 ng/mL
- concentration at 36 h ([1]; 272 mg, Two Patches, time point 36 hrs): 9.9 ng/mL
- concentration at 42 h ([1]; 272 mg, Two Patches, time point 42 hrs): 7.2 ng/mL
- concentration at 48 h ([1]; 272 mg, Two Patches, time point 48 hrs): 6.2 ng/mL

Compound: O=C(O)Cc1ccccc1Nc1c(Cl)cccc1Cl [diclofenac]
- Skin permeability compared with ketoprofen [2]: less skin permeable
